Measured values published in the supplement of paper PMC6045584.
± gives the standard deviation of the averaged measurements.

Columns and labels:
MK2206 = compound: NC1(c2ccc(-c3nc4ccn5c(=O)[nH]nc5c4cc3-c3ccccc3)cc2)CCC1 [MK2206]; assay: surviving fraction relative to DMSO-only wells; higher = less growth inhibition; conditions: exposure time: 5 days
Method in brief: (§1)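 Surviving fraction is CellTiter-Glo luminescence divided by the median of wells given DMSO only. For this, log-phase tumour cell lines went into 384-well plates at 250–500 cells per well and, 24 hours later, into five days of continuous inhibitor exposure at 0.5, 1, 5, 10, 50, 100, 500 and 1000 nM. Lines were screened three times and retained only if replicate Pearson r >0.7 and median Z' >0.3.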

ETOPOSIDE = compound: COc1cc([C@@H]2c3cc4c(cc3[C@@H](O[C@@H]3O[C@@H]5CO[C@@H](C)O[C@H]5[C@H](O)[C@H]3O)[C@H]3COC(=O)[C@H]23)OCO4)cc(OC)c1O [ETOPOSIDE]; assay: as above; conditions: exposure time: 5 days
Method in brief: as §1

Test System | surviving fraction (MK2206; 0.5 nM) | surviving fraction (MK2206; 1 nM) | surviving fraction (MK2206; 5 nM) | surviving fraction (MK2206; 10 nM) | surviving fraction (MK2206; 50 nM) | surviving fraction (MK2206; 100 nM) | surviving fraction (MK2206; 500 nM) | surviving fraction (MK2206; 1000 nM) | surviving fraction (ETOPOSIDE; 0.5 nM) | surviving fraction (ETOPOSIDE; 1 nM) | surviving fraction (ETOPOSIDE; 5 nM) | surviving fraction (ETOPOSIDE; 10 nM) | surviving fraction (ETOPOSIDE; 50 nM) | surviving fraction (ETOPOSIDE; 100 nM) | surviving fraction (ETOPOSIDE; 500 nM) | surviving fraction (ETOPOSIDE; 1000 nM)
22RV1 PROSTATE | 1.04 ± 0.045 | 0.987 ± 0.09 | 0.87 ± 0.09 | 0.921 ± 0.17 | 0.707 ± 0.12 | 0.762 ± 0.064 | 0.554 ± 0.05 | 0.582 ± 0.0085 | 1.03 ± 0.084 | 1 ± 0.083 | 0.928 ± 0.059 | 0.939 ± 0.023 | 0.922 ± 0.046 | 0.747 ± 0.047 | 0.42 ± 0.034 | 0.345 ± 0.03
93VU HEADNECK | 1.06 ± 0.076 | 1.07 ± 0.14 | 1.1 ± 0.093 | 1.15 ± 0.048 | 1.02 ± 0.045 | 0.999 ± 0.11 | 0.789 ± 0.085 | 0.649 ± 0.038 | 1 ± 0.042 | 1.07 ± 0.033 | 1.11 ± 0.037 | 1.05 ± 0.15 | 1.03 ± 0.12 | 1.14 ± 0.12 | 0.953 ± 0.054 | 0.896 ± 0.021
143B BONE | 0.912 ± 0.012 | 0.969 ± 0.042 | 0.974 ± 0.082 | 1.1 ± 0.1 | 0.957 ± 0.024 | 0.959 ± 0.064 | 0.96 ± 0.034 | 0.939 ± 0.033 | 0.981 ± 0.021 | 0.993 | 1.01 ± 0.016 | 1.03 ± 0.012 | 1.01 ± 0.012 | 0.979 ± 0.079 | 0.484 ± 0.005 | 0.297
A549 LUNG | 1.05 ± 0.023 | 1.1 ± 0.028 | 1.06 ± 0.037 | 1.081 ± 0.0074 | 1.06 ± 0.017 | 1.08 ± 0.026 | 1.06 ± 0.024 | 1.09 ± 0.042 | 0.989 ± 0.071 | 0.99 ± 0.074 | 0.988 ± 0.026 | 0.976 ± 0.05 | 1 ± 0.057 | 1.09 ± 0.057 | 0.958 ± 0.048 | 0.67 ± 0.017
ASKA SYNOVIAL | 0.991 ± 0.089 | 1.06 ± 0.014 | 1 ± 0.04 | 1.02 ± 0.16 | 0.771 ± 0.038 | 0.724 ± 0.064 | 0.482 ± 0.018 | 0.481 ± 0.022 | 1.07 ± 0.14 | 0.949 ± 0.012 | 0.985 ± 0.052 | 0.881 ± 0.036 | 0.68 ± 0.049 | 0.453 ± 0.015 | 0.3413 ± 0.0023 | 0.319 ± 0.0085
BT20 BREAST | 1.14 ± 0.045 | 1.15 ± 0.07 | 1.05 ± 0.034 | 1.01 ± 0.078 | 1.11 ± 0.12 | 1.16 ± 0.052 | 1.39 ± 0.066 | 1.16 ± 0.05 | 1.13 ± 0.073 | 1.17 ± 0.089 | 0.936 ± 0.17 | 1.04 ± 0.13 | 0.995 ± 0.098 | 0.919 ± 0.14 | 0.454 ± 0.11 | 0.211 ± 0.052
BT549 BREAST | 1.07 ± 0.092 | 1.06 ± 0.048 | 0.982 ± 0.15 | 1.06 ± 0.07 | 0.837 ± 0.05 | 0.833 ± 0.091 | 0.616 ± 0.078 | 0.46 ± 0.043 | 0.976 ± 0.13 | 1.15 ± 0.075 | 1.06 ± 0.13 | 1.05 ± 0.12 | 0.939 ± 0.069 | 0.907 ± 0.13 | 0.32 ± 0.027 | 0.198 ± 0.034
CADOES1 SOFT TISSUE | 1.02 ± 0.12 | 0.925 ± 0.099 | 0.915 ± 0.097 | 0.926 ± 0.036 | 0.828 ± 0.088 | 0.815 ± 0.092 | 0.711 ± 0.077 | 0.591 ± 0.071 | 0.948 ± 0.12 | 0.908 ± 0.12 | 0.966 ± 0.04 | 0.97 ± 0.024 | 0.819 ± 0.048 | 0.977 ± 0.023 | 0.735 ± 0.053 | 0.528 ± 0.069
CAL51 BREAST | 0.986 ± 0.05 | 1.09 ± 0.079 | 1.06 ± 0.031 | 1.02 ± 0.035 | 0.996 ± 0.043 | 0.993 ± 0.072 | 0.731 ± 0.027 | 0.56 ± 0.03 | 0.951 ± 0.068 | 1.02 ± 0.022 | 0.956 ± 0.039 | 0.977 ± 0.049 | 0.929 ± 0.063 | 0.921 ± 0.019 | 0.305 ± 0.037 | 0.139 ± 0.011
CAL120 BREAST | 0.976 ± 0.071 | 0.977 ± 0.062 | 0.991 ± 0.068 | 1.01 ± 0.06 | 0.966 ± 0.051 | 0.951 ± 0.031 | 0.859 ± 0.038 | 0.823 ± 0.043 | 0.939 ± 0.036 | 0.933 ± 0.033 | 0.982 ± 0.016 | 0.973 ± 0.013 | 0.938 ± 0.035 | 0.939 ± 0.038 | 0.498 ± 0.1 | 0.356 ± 0.011
